The assay has as its target PIK3CG (human) (UniProt P48736). As to the kind of experiment: Assessment of PIK3CG Kinase Activity.

pIC50: −log10 of the molar value.

PIK3CG (human), sequence (P48736 whole entry, looked up): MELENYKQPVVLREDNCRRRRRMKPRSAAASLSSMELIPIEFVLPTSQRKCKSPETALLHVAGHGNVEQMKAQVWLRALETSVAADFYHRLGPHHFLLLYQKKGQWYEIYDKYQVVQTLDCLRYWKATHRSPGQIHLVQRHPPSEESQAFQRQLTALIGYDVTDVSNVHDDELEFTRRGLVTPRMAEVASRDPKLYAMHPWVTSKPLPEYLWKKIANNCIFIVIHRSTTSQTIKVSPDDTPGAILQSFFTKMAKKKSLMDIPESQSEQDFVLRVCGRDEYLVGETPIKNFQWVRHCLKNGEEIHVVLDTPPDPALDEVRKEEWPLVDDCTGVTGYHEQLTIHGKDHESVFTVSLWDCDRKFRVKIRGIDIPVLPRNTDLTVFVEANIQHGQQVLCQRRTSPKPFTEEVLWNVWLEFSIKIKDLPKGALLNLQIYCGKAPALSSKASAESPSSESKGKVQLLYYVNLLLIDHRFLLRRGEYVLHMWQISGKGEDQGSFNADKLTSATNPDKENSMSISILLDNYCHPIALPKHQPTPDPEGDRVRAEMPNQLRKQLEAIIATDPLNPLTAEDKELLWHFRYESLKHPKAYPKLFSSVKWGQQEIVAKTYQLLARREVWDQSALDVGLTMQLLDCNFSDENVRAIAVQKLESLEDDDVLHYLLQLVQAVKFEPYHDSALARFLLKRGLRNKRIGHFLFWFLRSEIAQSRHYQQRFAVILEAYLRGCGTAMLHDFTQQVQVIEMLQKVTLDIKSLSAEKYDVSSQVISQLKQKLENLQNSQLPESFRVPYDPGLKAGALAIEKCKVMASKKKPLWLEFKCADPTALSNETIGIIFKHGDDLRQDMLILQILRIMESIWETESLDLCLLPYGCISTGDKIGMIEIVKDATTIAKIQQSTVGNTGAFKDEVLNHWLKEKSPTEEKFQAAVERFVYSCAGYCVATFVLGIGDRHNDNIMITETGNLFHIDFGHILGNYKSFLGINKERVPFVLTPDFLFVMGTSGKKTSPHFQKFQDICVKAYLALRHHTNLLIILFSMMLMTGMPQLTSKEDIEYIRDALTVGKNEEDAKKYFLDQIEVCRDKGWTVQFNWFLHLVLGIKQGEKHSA

In the case of `CC(C)N1CC(=O)N(C)c2cnc(Nc3cc(NC(=O)Cc4cc5ccccc5n4C)cc(S(C)(=O)=O)c3)nc21`, the negative-log IC50 (pIC50) (usually the negative decadic logarithm of the IC50, by convention in mol/L) is greater than 6.10. The same measure for `CN1C(=O)CN(c2ccccc2)c2nc(Nc3cccc(S(=O)(=O)CCNC4CC4)c3)ncc21`: greater than 6.10; for `CC(C)N1CC(=O)N(C)c2cnc(Nc3cc(NS(C)(=O)=O)cc(C(=O)NCCN4CCNC4=O)c3)nc21`: greater than 6.10; for `CC(C)N1CC(=O)N(C)c2cnc(Nc3cc(NS(=O)(=O)c4ccc(F)cc4)cc(S(C)(=O)=O)c3)nc21`: greater than 6.10.

Compound `COc1ccc2[nH]c(CC(=O)Nc3cc(Nc4ncc5c(n4)N(C(C)C)CC(=O)N5C)cc(S(C)(=O)=O)c3)cc2c1` had a pIC50 greater than 6.10.

Compound `CC(C)N1CC(=O)N(C)c2cnc(Nc3cc(NC(=O)Cc4ccsc4)cc(S(C)(=O)=O)c3)nc21` showed a negative logarithm of the IC50 (pIC50) greater than 6.10. `CC(C)N1CC(=O)N(C)c2cnc(Nc3cc(NC(=O)[C@@H](N)c4ccccc4)cc(S(C)(=O)=O)c3)nc21` gave a pIC50 greater than 6.10.

`CCC(C(=O)Nc1cc(Nc2ncc3c(n2)N(C(C)C)CC(=O)N3C)cc(S(C)(=O)=O)c1)c1ccccc1` (stereo not drawn) had a pIC50 greater than 6.10.

`CN1C(=O)CN(c2ccccc2)c2nc(Nc3cccc(S(=O)(=O)CCN4CCCCC4)c3)ncc21`: the pIC50 is greater than 6.10. The same measure for `CC(C)N1CC(=O)N(C)c2cnc(Nc3cc(NC(=O)N[C@H]4CCNC4)cc(S(C)(=O)=O)c3)nc21`: greater than 6.10; for `CC(C)N1CC(=O)N(C)c2cnc(Nc3cc(NC(=O)NC[C@H]4CCCN4)cc(S(C)(=O)=O)c3)nc21`: greater than 6.10; for `CC(C)N1CC(=O)N(C)c2cnc(Nc3cc(NC(=O)N[C@H]4CC[C@@H](N(C)C)CC4)cc(S(C)(=O)=O)c3)nc21`: greater than 6.10.

Take `CC(C)N1CC(=O)N(C)c2cnc(Nc3cc(C(=O)NCCN4CCNC4=O)cc(C(F)(F)F)c3)nc21`: the negative-log IC50 (pIC50) is greater than 6.10.

For `CC(C)N1CC(=O)N(C)c2cnc(Nc3cc(NC(=O)N[C@H]4CCN(C5CCCC5)C4)cc(S(N)(=O)=O)c3)nc21`, the pIC50 is greater than 6.10.

In turn, `CC(C)N1CC(=O)N(C)c2cnc(Nc3cc(NC(=O)NCCCN(C)C)cc(S(C)(=O)=O)c3)nc21` had a negative-log IC50 (pIC50) greater than 6.10.

In turn, `CC(C)N1CC(=O)N(C)c2cnc(Nc3cc(NC(=O)N4CCOCC4)cc(S(C)(=O)=O)c3)nc21` had a pIC50 greater than 6.10. The same measure for `CC(C)N1CC(=O)N(C)c2cnc(Nc3cc(NC(=O)C4CN(C5CCCC5)CCO4)cc(S(C)(=O)=O)c3)nc21` (stereo not drawn): greater than 6.10; for `CC(C)N1CC(=O)N(C)c2cnc(Nc3cc(C(=O)NC4CCN(C)CC4)cc(S(C)(=O)=O)c3)nc21`: greater than 6.10; for `CC(C)N1CC(=O)N(C)c2cnc(Nc3cc(N(C)C(=O)Cc4cccs4)cc(S(C)(=O)=O)c3)nc21`: greater than 6.10.

`CC(C)N1CC(=O)N(C)c2cnc(Nc3cc(NC(=O)CC4CCCC4)cc(S(C)(=O)=O)c3)nc21` showed a pIC50 greater than 6.10.

Turning to `Cc1cc(CNC(=O)Nc2cc(Nc3ncc4c(n3)N(C(C)C)CC(=O)N4C)cc(S(C)(=O)=O)c2)n[nH]1`, the negative-log IC50 (pIC50) is greater than 6.10. The same measure for `CC(C)N1CC(=O)N(C)c2cnc(Nc3cccc(S(=O)(=O)CCNC4CCC4)c3)nc21`: greater than 6.10. With `CC(C)N1CC(=O)N(C)c2cnc(Nc3cc(NC(=O)NCc4ccncc4)cc(S(C)(=O)=O)c3)nc21` the figure was greater than 6.10. `CC(C)N1CC(=O)N(C)c2cnc(Nc3cc(NC(=O)Cc4ccc(Cl)nc4)cc(S(C)(=O)=O)c3)nc21`: the pIC50 was greater than 6.10. The same measure for `CC(C)N1CC(=O)N(C)c2cnc(Nc3cc(NS(C)(=O)=O)cc(C(=O)NC4CCN(C)C4)c3)nc21` (stereo not drawn): greater than 6.10; for `CC(C)N1CC(=O)N(C)c2cnc(Nc3cc(NC(=O)CCC4CCCC4)cc(S(C)(=O)=O)c3)nc21`: greater than 6.10. With `CC(C)N1CC(=O)N(C)c2cnc(Nc3cc(NC(=O)Cc4nnn[nH]4)cc(S(C)(=O)=O)c3)nc21` the figure was greater than 6.10. `CC(C)N1CC(=O)N(C)c2cnc(Nc3cc(N(C)C(=O)N[C@H]4CCN(C5CCCC5)C4)cc(S(C)(=O)=O)c3)nc21`: the pIC50 was greater than 6.10. With `CC(C)N1CC(=O)N(C)c2cnc(Nc3cc(NC(=O)Cc4cc5cc(F)ccc5[nH]4)cc(S(C)(=O)=O)c3)nc21` the figure was greater than 6.10; with `CC(C)N1CC(=O)N(C)c2cnc(Nc3cc(NC(=O)[C@@H]4CCNC4)cc(S(C)(=O)=O)c3)nc21`, greater than 6.10; with `CC(C)N1CC(=O)N(C)c2cnc(Nc3cc(NC(=O)C[C@@H]4CCNC4)cc(S(C)(=O)=O)c3)nc21`, greater than 6.10. The same measure for `CC(C)N1CC(=O)N(C)c2cnc(Nc3cc(NS(C)(=O)=O)cc(C(=O)NCCc4ccccn4)c3)nc21`: greater than 6.10; for `CC(C)N1CC(=O)N(C)c2cnc(Nc3cc(NS(=O)(=O)c4ccc(N5CCOCC5)nc4)cc(S(N)(=O)=O)c3)nc21`: greater than 6.10. With `CC(C)N1CC(=O)N(C)c2cnc(Nc3cc(C(=O)NCCc4ccncc4)cc(S(C)(=O)=O)c3)nc21` the figure was greater than 6.10. `CC(C)N1CC(=O)N(C)c2cnc(Nc3cc(NC(=O)NCCc4cccnc4)cc(S(C)(=O)=O)c3)nc21` showed a negative logarithm of the IC50 (pIC50) greater than 6.10. The same measure for `CC(C)N1CC(=O)N(C)c2cnc(Nc3cc(NC(=O)[C@H](C)c4ccccc4)cc(S(C)(=O)=O)c3)nc21`: greater than 6.10; for `CC(C)N1CC(=O)N(C)c2cnc(Nc3cc(NC(=O)NC[C@@H]4CCCO4)cc(S(C)(=O)=O)c3)nc21`: greater than 6.10. The same measure for `CC(C)N1CC(=O)N(C)c2cnc(Nc3cc(CO)cc(S(C)(=O)=O)c3)nc21`: greater than 6.10; for `CC(C)N1CC(=O)N(C)c2cnc(Nc3cc(NC(=O)Cc4cccc(F)c4)cc(S(C)(=O)=O)c3)nc21`: greater than 6.10.

The compound `CC(C)N1CC(=O)N(C)c2cnc(Nc3cc(NC(=O)Cc4cccc(Cl)c4)cc(S(C)(=O)=O)c3)nc21` gave a pIC50 greater than 6.10.

`CCS(=O)(=O)c1cccc(Nc2ncc3c(n2)N(C2CCCCC2)CC(=O)N3C)c1` had a pIC50 greater than 6.10. With `CC(C)N1CC(=O)N(C)c2cnc(Nc3cc(C#N)cc(S(C)(=O)=O)c3)nc21` the figure was greater than 6.10; with `CC(C)N1CC(=O)N(C)c2cnc(Nc3cccc(S(=O)(=O)C(C)C)c3)nc21`, greater than 6.10; with `CC(C)N1CC(=O)N(C)c2cnc(Nc3cc(NC(=O)NC[C@@H]4CCCN4C4CCCC4)cc(S(C)(=O)=O)c3)nc21`, greater than 6.10.

`CC(C)N1CC(=O)N(C)c2cnc(Nc3cc(C(=O)NCc4ccncc4)cc(S(C)(=O)=O)c3)nc21`: the pIC50 is greater than 6.10. With `CC(C)N1CC(=O)N(C)c2cnc(Nc3cc(NC(=O)N[C@@H]4CCNC4)cc(S(C)(=O)=O)c3)nc21` the figure was greater than 6.10; with `CC(C)N1CC(=O)N(C)c2cnc(Nc3cc(NC(=O)C(C)(C)c4ccccc4)cc(S(C)(=O)=O)c3)nc21`, greater than 6.10; with `Cc1[nH]c2ccccc2c1CC(=O)Nc1cc(Nc2ncc3c(n2)N(C(C)C)CC(=O)N3C)cc(S(C)(=O)=O)c1`, greater than 6.10. With `CC(C)N1CC(=O)N(C)c2cnc(Nc3cc(NS(=O)(=O)c4cccnc4)cc(S(N)(=O)=O)c3)nc21` the figure was greater than 6.10; with `CC(C)N1CC(=O)N(C)c2cnc(Nc3cc(NC(=O)N[C@@H]4CCN(C5CCCC5)C4)cc(NS(C)(=O)=O)c3)nc21`, greater than 6.10; with `CC(C)N1CC(=O)N(C)c2cnc(Nc3cccc(S(=O)(=O)CCO)c3)nc21`, greater than 6.10.

On to `CC(C)N1CC(=O)N(C)c2cnc(Nc3cc(N(C)C(=O)Nc4ccccc4)cc(S(C)(=O)=O)c3)nc21`, for which the negative logarithm of the IC50 (pIC50) is greater than 6.10. The same measure for `CNC(=O)Nc1cc(Nc2ncc3c(n2)N(C(C)C)CC(=O)N3C)cc(S(C)(=O)=O)c1`: greater than 6.10. The same measure for `CC(C)N1CC(=O)N(C)c2cnc(Nc3cc(NC(=O)Cc4cccs4)cc(S(C)(=O)=O)c3)nc21`: greater than 6.10; for `CC(C)N1CC(=O)N(C)c2cnc(Nc3cc(NS(=O)(=O)Cc4ccccc4)cc(S(C)(=O)=O)c3)nc21`: greater than 6.10; for `CC(C)N1CC(=O)N(C)c2cnc(Nc3cc(NC(=O)Cc4c[nH]c5ccccc45)cc(S(C)(=O)=O)c3)nc21`: greater than 6.10.

For the compound `CC(C)N1CC(=O)N(C)c2cnc(Nc3cc(C(N)=O)cc(C(F)(F)F)c3)nc21`, the negative logarithm of the IC50 (pIC50) is greater than 6.10. The same measure for `CC(C)N1CC(=O)N(C)c2cnc(Nc3cc(NC(N)=O)cc(S(C)(=O)=O)c3)nc21`: greater than 6.10; for `CC(C)N1CC(=O)N(C)c2cnc(Nc3cc(NC(=O)N[C@H]4CCN(Cc5ccccc5)C4)cc(S(C)(=O)=O)c3)nc21`: greater than 6.10; for `CC(C)N1CC(=O)N(C)c2cnc(Nc3cc(NS(C)(=O)=O)cc(C(=O)NCCC4CCCN4C)c3)nc21` (stereo not drawn): greater than 6.10. The same measure for `CC(C)N1CC(=O)N(C)c2cnc(Nc3cc(NC(=O)c4csc5ccccc45)cc(S(C)(=O)=O)c3)nc21`: greater than 6.10.

In turn, `CC(C)N1CC(=O)N(C)c2cnc(Nc3cc(NS(=O)(=O)CC4CCCCC4)cc(S(C)(=O)=O)c3)nc21` had a pIC50 greater than 6.10. The same measure for `CC(C)N1CC(=O)N(C)c2cnc(Nc3cc(C(N)=O)cc(S(C)(=O)=O)c3)nc21`: greater than 6.10. The same measure for `CC(C)N1CC(=O)N(C)c2cnc(Nc3cc(NC(=O)N[C@H]4CCN(C(=O)OC(C)(C)C)C4)cc(S(C)(=O)=O)c3)nc21`: greater than 6.10. The same measure for `CC(C)N1CC(=O)N(C)c2cnc(Nc3cc(NC(=O)C[C@H]4CCN(C5CCCC5)C4)cc(S(C)(=O)=O)c3)nc21`: greater than 6.10. `CC(C)NCCS(=O)(=O)c1cccc(Nc2ncc3c(n2)N(C(C)C)CC(=O)N3C)c1` had a negative logarithm of the IC50 (pIC50) greater than 6.10. In the case of `CC(C)N1CC(=O)N(C)c2cnc(Nc3cc(NC(=O)[C@@H]4CCCNC4)cc(S(C)(=O)=O)c3)nc21`, the pIC50 is greater than 6.10. With `CC(C)N1CC(=O)N(C)c2cnc(Nc3cc(NC(=O)CC4CC4)cc(S(C)(=O)=O)c3)nc21` the figure was greater than 6.10; with `CC(C)N1CC(=O)N(C)c2cnc(Nc3cc(NS(C)(=O)=O)cc(C(=O)NCCCCN(C)C)c3)nc21`, greater than 6.10; with `CC(C)N1CC(=O)N(C)c2cnc(Nc3cc(NC(=O)N(C)C[C@@H]4CCCN4C4CCCC4)cc(S(C)(=O)=O)c3)nc21`, greater than 6.10. Consider `CC(C)N1CC(=O)N(C)c2cnc(Nc3cc(S(C)(=O)=O)cc(S(C)(=O)=O)c3)nc21`, for which the pIC50 is greater than 6.10.

Compound `CN=[S@@](C)(=O)c1cccc(Nc2ncc3c(n2)N(C(C)C)CC(=O)N3C)c1` gave a negative-log IC50 (pIC50) greater than 6.10. `CC(C)N1CC(=O)N(C)c2cnc(Nc3cc(NC(=O)[C@@H]4CCCN4)cc(S(C)(=O)=O)c3)nc21` had a pIC50 greater than 6.10.

The values above are taken from the Kinase Knowledgebase extract (Sharma et al. 2016).
